Experimental data published in patent US20230100429A1, “LIVE-PATHOGEN-MIMETIC NANOPARTICLES BASED ON PATHOGEN CELL WALL SKELETON, AND PRODUCTION METHOD THEREOF” (priority 2020, published 2023).

Assay: Toxicity evaluation, plasma AST and ALT after subcutaneous injection
Assay type: in vivo, C57BL/6 mouse
Details: 25 μg resiquimod, over time, FIG. 6
Description: To evaluate the toxicity of a live pathogen-mimetic nano-molecule, a live pathogen-mimetic nano-molecule, a CWS-nanodispersion, resiquimod (R848; free drug), or a mixture of a CWS-nanodispersion and resiquimod (R848; free drug), which was added to a 50 μL of phosphate buffered saline (PBS) to have a resiquimod concentration of 25 μg, was subcutaneously injected into the right flank of a C57BL/6 mouse. Then, blood was extracted from the mouse at fixed time intervals and centrifuged at 12,000 rpm to isolate plasma. Then, the concentrations of aspartate transaminase (AST) and alanine transaminase (ALT) contained in the isolated plasma were measured using ELISA.

CCOCc1nc2c(N)nc3ccccc3c2n1CC(C)(C)O [resiquimod]
plasma ALT concentration (hepatotoxicity indicator): initially increased
plasma AST concentration (hepatotoxicity indicator): initially increased
